# Measured values as given in patent US20070191398A1, “Fungicidal mixtures” (priority 2004, published 2007).
# Test system: Plasmopara viticola
# Assay: persistency against peronospora of grapevines caused by Plasmopara viticola, 7-day protective application
# Assay type: in vivo, Plasmopara viticola on potted vines
# Conditions: individual active compound, 7-day protective application on grapevine leaves
# Description: The active compounds, separately or jointly, were prepared as a stock solution comprising 0.25% by weight of active compound in acetone or DMSO. 1% by weight of the emulsifier Uniperol® EL (wetting agent having emulsifying and dispersant action based on ethoxylated alkylphenols) was added to this solution, and the mixture was diluted with water to the desired concentration.
# Use example—persistency against peronospora of grapevines caused by Plasmopara viticola, 7-day protective application Leaves of potted vines were sprayed to runoff point with an aqueous suspension having the concentration of active compound stated below. 7 days later, the undersides of the leaves were inoculated with an aqueous sporangia suspension of Plasmopara viticola. The grapevines were then initially placed in a water-vapor-saturated chamber at 24° C. for 48 hours and then in a greenhouse at 20-30° C. for 5 days. After this period of time, the plants were again placed in a humid chamber for 16 hours to accelerate sporangiophore eruption. The extent of the development of the disease on the undersides of the leaves was then determined visually.
# The visually determined percentages of infected leaf areas were converted into efficacies in % of the untreated control:
# The efficacy (E) is calculated as follows using Abbot's formula: E=(1−α/β)·100 α corresponds to the fungicidal infection of the treated plants in % and β corresponds to the fungicidal infection of the untreated (control) plants in % An efficacy of 0 means that the infection level of the treated plants corresponds to that of the untreated control plants; an efficacy of 100 means that the treated plants were not infected.
# The expected efficacies of mixtures of active compounds were determined using Colby's formula (Colby, S. R. “Calculating synergistic and antagonistic responses of herbicide combinations”, Weeds, 15, 20-22, 1967) and compared with the observed efficacies.
# Colby's formula: E=x+y−x·y/100
# E expected efficacy, expressed in % of the untreated control, when using the mixture of the active compounds A and B at the concentrations a and b x efficacy, expressed in % of the untreated control, when using the active compound A at the concentration a y efficacy, expressed in % of the untreated control, when using the active compound B at the concentration b
SMILES,Efficacy in % of the untreated control (2.5 ppm in the spray liquor) [%],Efficacy in % of the untreated control (5 ppm in the spray liquor) [%],Efficacy in % of the untreated control (1 ppm in the spray liquor) [%],Efficacy in % of the untreated control (10 ppm in the spray liquor) [%]
"O=C(NCc1ncc(C(F)(F)F)cc1Cl)c1c(Cl)cccc1Cl [II, 2,6-dichloro-N-(3-chloro-5-trifluoromethylpyridin-2-ylmethyl)-benzamide]",65,76,,
"CC1CCN(c2c(-c3c(F)cc(F)cc3F)c(Cl)nc3ncnn23)CC1 [I, 5-chloro-7-(4-methylpiperidin-1-yl)-6-(2,4,6-trifluorophenyl)-[1,2,4]tri-azolo[1,5-a]pyrimidine]",,0,0,6
